Results on eight molecules are retold here after patent publication US20190316211A1, “ONCOGENIC ALTERNATIVE SPLICING SWITCH OF PACE4 IN CANCER” (SOCIETE DE COMMERCIALISATION DES PRODUITS DE LA RECHERCHE …, priority 2016, published 2019).

One data set deals with PACE4 secretion. Nature of the data set: PACE4 secretion assay with post-translational modification inhibitors. The data set is classed as cell-based. The following applies: 24 h secretion in presence of agent. An excerpt:
Immunoprecipitations on transiently transfected HEK293-FT cells were subjected to Sequential Window Acquisition of all Theoretical Mass Spectra (SWATH-MS)-based analysis (FIGS. 7F and G). Proteins identified in each pull-down were used to compare enrichment between the two different isoforms. Both isoforms pulled-down endoplasmic reticulum (ER) proteins with similar enrichment. The two isoforms had clearly different patterns when it came to endosomal compartments-associated proteins such as Arf6, Rab13 or Vps16 with PACE4-altCT pull-down displaying the higher enriched levels for these proteins. […] Considering the slight substitution caused by the splicing in the protein primary structure (FIG. 7A), PTM prediction tools were used to evaluate whether distinctive PTM motifs could be found in the alternative C-terminus compared to the FL one. The predicted PTM sites that scored the highest were S-palmitoylation, non-consensual S-farnesylation and S-geranylgeranylation on the Cys cluster added at the C-terminal extremity of the protein ([…]; see FIG. 8A).
For PACE4 secretion assays, cells were plated at equal densities in 6-well plates for 24 h in complete medium. 24 h later, the medium was replaced by the minimal volume required of fresh culture medium (600 μL without FBS) and the cells were either allowed to secrete for the indicated time (for secretion kinetics) or (for inhibitor treatments) allowed to secrete for an additional 24 h in the presence of the indicated concentrations of agents (heparin (Sandoz, Niirnberg, Germany), 2-bromopalmitate (Sigma Aldrich), FTI-277 (Sigma Aldrich), GGTI-2133 (Santa Cruz Biotechnology Inc., Santa Cruz, Calif., USA)

Data set [1] addresses growth differentiation factor 15 (human) (UniProt Q99988). Briefly: cell-based or functional assay.
The test system of a further data set is IGF1R. Briefly: Western blot of PC substrate processing in inhibitor-treated DU145 and LNCaP lines. The data set is classed as cell-based. Conditions: 50 μM, 48 h. As to the method: (§1) Western blotting were carried out of (i) cell lines silenced with shPACE4, shfurin and shPC7, (ii) cell lines stably expressing PACE4-FL and PACE4-altCT and (iii) cell lines treated with either the non-selective and irreversible PC inhibitor decanoyl-RVKR-chloromethylketone (CMK) or the PACE4 high affinity peptide inhibitor [dLeu]LLLRVK-amidinobenzylamide (Amba; dL-ML-Amba), herein after called C23 (Levesque et al., 2015, Oncotarget, 6: 3680-3693). In order to test the western blot arrays, known PC substrates were chosen, namely, the insulin-like growth factor 1 receptor (IGF1R) and integrin alpha-6 (ITGA6); two well-accepted furin substrates, were evaluated (FIGS. 10A and B) and E-cadherin. […] In contrast, the overexpression of PACE4-FL and PACE4-altCT did increase the processing of IGF1R and ITGA6 pro-forms, highlighting the cautionary interpretation that are needed in overexpression studies.
(§2) For substrates analysis, cell lysates were prepared by plating equal number of cells in p100 mm plates in complete medium. 24 h later, medium was replaced by 6 mL of serum-free fresh medium (with treatment if indicated; 50 μM of dL-ML-Amba or dec-RVKR-CMK (Bachem, Torrance, Calif.) and cells were further incubated 48 h. Medium was then collected and centrifuged at 1,000×g for 10 min at room temperature to remove any floating cells, aliquot of medium were then taken (800 μL), flash-frozen in liquid nitrogen, lyophilized overnight, restituted in 100 μL of Laemmli buffer: 8M urea (1:1) and boiled for 5 min until complete resuspension. 25 μL of concentrated medium were loaded on SDS-PAGE (equivalent of 200 μL of culture medium). Cells were carefully washed with PBS and lysed from cell pellet (resulting from 1,000×g centrifugation) using radio-immunoprecipitation assay buffer (RIPA) as described in (Couture et al., 2012). Samples were incubated 20 min on ice and further centrifuged 30 min at 13.000 rpm at 4° C. Protein concentration was determined by bicinchoninic acid assay (Pierce) to load 15 μg on polyacrylamide gels. […] was used as a loading control, for conditioned media, a Coomassie blue staining was routinely performed to control for protein loading.

In the next data set the test system is ITGA6. The description is as above. The data set is classed as cell-based. Conditions: 50 μM, 48 h. As to the method:
as §1, §2

A further data set concerns GDF-15 in LNCaP cells. Nature of the data set: GDF-15 cleavage and secretion analysis (western blot, ELISA). The data set is classed as cell-based. Conditions: treated LNCaP cells, western blot array and ELISA. From the text:
FIG. 10 illustrates the identification and validation of GDF-15 as a PACE4-specific substrate in prostate cancer cells, showing in (A) Western blots of candidate PC substrates across the knockdown, overexpressing and inhibitor-treated DU145 and LNCaP (B) lines; (C) expression of GDF-15 in DU145 and LNCaP cells showing that mature GDF-15 is secreted in the medium; (D) GDF-15 concentrations in DU145 and LNCaP conditioned medium determined by ELISA; (E) GDF-15 cleavage analysis in the LNCaP cells panel; (F) GDF-15 concentrations in the conditioned medium determined by ELISA; (G) GDF-15 cleavage analysis in LNCaP treated with either the ML-peptide or the cell impermeable analog (PEG8-ML); (H) GDF-15 spanning peptide cleavage by PACE4 and furin monitored by HPLC, cleavage site is underlined in the spanning peptide sequence, peptide identity was confirmed by MALDI-TOF upon collection of associated fractions; (I) Western blot analysis of paired adjacent non-cancerous tissues (ANCT) and prostate tissues (PCa); and (J) a blot showing various cancer grades is shown together with the densitometric analysis of 21 tissues pairs (n=6 (3+3), 7 (3+4), 6 (4+3), 2 (5+X) X being 3 and 4).
GDF-15 is known to supports both the proliferation and clonogenic potential of LNCaP cells, which is also in line with the observed phenotypes for both PACE4 knockdown and overexpressing cells. […]
(In general: Immunoblotting shows a protein as a band on a membrane.)

The target in data set [2] is Multi-Leucine (ML) peptide.

Sequence of growth differentiation factor 15 (human) (Q99988 195-308): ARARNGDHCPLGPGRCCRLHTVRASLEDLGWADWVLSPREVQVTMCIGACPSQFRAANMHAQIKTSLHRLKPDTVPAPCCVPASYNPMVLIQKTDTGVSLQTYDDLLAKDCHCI

For the molecule `COC(=O)[C@H](CCSC)NC(=O)c1ccc(NC[C@@H](N)CS)cc1-c1ccccc1` [FTI-277], the “variation in secretion levels” value in the data set on PACE4 secretion was “without any significant variation”.

In turn, “PACE4-FL (from UniProt P29122 150-969) (enzyme)” registered an amount of secreted GDF-15 in conditioned medium (ELISA) (times higher than pLenti6 control cells) in data set [1] of 5.

decanoyl-RVKR-chloromethylketone [CMK]: the “processing of IGF1R pro-form” value with IGF1R is “prevented the processing”. For the same molecule, the “processing of ITGA6 pro-form” value in the data set on ITGA6 is “prevented the processing”. In addition, the “GDF-15 observed in the medium” value with GDF-15 in LNCaP cells is reported as “virtually no pro-GDF-15 could be observed”.

On to `CC(C)C[C@H](NC(=O)c1ccc(NCc2cnc[nH]2)cc1-c1cccc2ccccc12)C(=O)O` [GGTI-2133], for which the “variation in secretion levels” value in the data set on PACE4 secretion is “without any significant variation”.

For the molecule `CCCCCCCCCCCCCCC(Br)C(=O)O` (stereo not drawn) [2-BP, 2-bromopalmitate], the “variation in secretion levels” value in the data set with PACE4 secretion is on record as “without any significant variation”.

For the molecule [dLeu]LLLRVK-amidinobenzylamide [C23], the “processing of IGF1R pro-form” value in the data set on IGF1R is “no effect”. Moreover, in the data set on ITGA6, the “processing of ITGA6 pro-form” value is on record as “no effect”. For the same molecule, the “GDF-15 observed in the medium” value in the data set with GDF-15 in LNCaP cells was “virtually no pro-GDF-15 could be observed”.

B1: V5-tagged PACE4-altCT (protein)
chain: QVRSDPQALYFNDPIWSNMWYLHCGDKNSRCRSEMNVQAAWKRGYTGKNVVVTILDDGIERNHPDLAPNYDSYASYDVNGNDYDPSPRYDASNENKHGTRCAGEVAASANNSYCIVGIAYNAKIGGIRMLDGDVTDVVEAKSLGIRPNYIDIYSASWGPDDDGKTVDGPGRLAKQAFEYGIKKGRQGLGSIFVWASGNGGREGDYCSCDGYTNSIYTISVSSATENGYKPWYLEECASTLATTYSSGAFYERKIVTTDLRQRCTDGHTGTSVSAPMVAGIIALALEANSQLTWRDVQHLLVKTSRPAHLKASDWKVNGAGHKVSHFYGFGLVDAEALVVEAKKWTAVPSQHMCVAASDKRPRSIPLVQVLRTTALTSACAEHSDQRVVYLEHVVVRTSISHPRRGDLQIYLVSPSGTKSQLLAKRLLDLSNEGFTNWEFMTVHCWGEKAEGQWTLEIQDLPSQVRNPEKQGKLKEWSLILYGTAEHPYHTFSAHQSRSRMLELSAPELEPPKAALSPSQVEVPEDEEDYTAQSTPGSANILQTSVCHPECGDKGCDGPNADQCLNCVHFSLGSVKTSRKCVSVCPLGYFGDTAARRCRRCHKGCETCSSRAATQCLSCRRGFYHHQEMNTCVTLCPAGFYADESQKNCLKCHPSCKKCVDEPEKCTVCKEGFSLARGSCIPDCEPGTYFDSELIRCGECHHTCGTCVGPGREECIHCAKNFHFHDWKCVPACGEGFYPEEMPGLPHKVCRRCDENCLSCAGSSRNCSRCKTGFTQLGTSCITNHTCSNGDIWQRLETFWVVTTGRMYSHPVGGGQECC
For the molecule B1, the “enzymatic activity (cleavage of the fluorogenic substrate Pyr-Arg-Thr-Lys-Arg-methylcoumaryl-7-amide)” value in data set [2] is recorded as “both isoforms were still equally inhibited by the Multi-Leucine (ML) peptide”.

B2: V5-tagged PACE4-FL (protein)
chain: QVRSDPQALYFNDPIWSNMWYLHCGDKNSRCRSEMNVQAAWKRGYTGKNVVVTILDDGIERNHPDLAPNYDSYASYDVNGNDYDPSPRYDASNENKHGTRCAGEVAASANNSYCIVGIAYNAKIGGIRMLDGDVTDVVEAKSLGIRPNYIDIYSASWGPDDDGKTVDGPGRLAKQAFEYGIKKGRQGLGSIFVWASGNGGREGDYCSCDGYTNSIYTISVSSATENGYKPWYLEECASTLATTYSSGAFYERKIVTTDLRQRCTDGHTGTSVSAPMVAGIIALALEANSQLTWRDVQHLLVKTSRPAHLKASDWKVNGAGHKVSHFYGFGLVDAEALVVEAKKWTAVPSQHMCVAASDKRPRSIPLVQVLRTTALTSACAEHSDQRVVYLEHVVVRTSISHPRRGDLQIYLVSPSGTKSQLLAKRLLDLSNEGFTNWEFMTVHCWGEKAEGQWTLEIQDLPSQVRNPEKQGKLKEWSLILYGTAEHPYHTFSAHQSRSRMLELSAPELEPPKAALSPSQVEVPEDEEDYTAQSTPGSANILQTSVCHPECGDKGCDGPNADQCLNCVHFSLGSVKTSRKCVSVCPLGYFGDTAARRCRRCHKGCETCSSRAATQCLSCRRGFYHHQEMNTCVTLCPAGFYADESQKNCLKCHPSCKKCVDEPEKCTVCKEGFSLARGSCIPDCEPGTYFDSELIRCGECHHTCGTCVGPGREECIHCAKNFHFHDWKCVPACGEGFYPEEMPGLPHKVCRRCDENCLSCAGSSRNCSRCKTGFTQLGTSCITNHTCSNADETFCEMVKSNRLCERKLFIQFCCRTCLLAG
For the molecule B2, the “enzymatic activity (cleavage of the fluorogenic substrate Pyr-Arg-Thr-Lys-Arg-methylcoumaryl-7-amide)” value in data set [2] is “both isoforms were still equally inhibited by the Multi-Leucine (ML) peptide”.
